Assay [1] has as its target T1, human μ-calpain (Homo sapiens, UniProt P07384).
T1 construct: purchased Calbiochem
T1 sequence (P07384 1-714): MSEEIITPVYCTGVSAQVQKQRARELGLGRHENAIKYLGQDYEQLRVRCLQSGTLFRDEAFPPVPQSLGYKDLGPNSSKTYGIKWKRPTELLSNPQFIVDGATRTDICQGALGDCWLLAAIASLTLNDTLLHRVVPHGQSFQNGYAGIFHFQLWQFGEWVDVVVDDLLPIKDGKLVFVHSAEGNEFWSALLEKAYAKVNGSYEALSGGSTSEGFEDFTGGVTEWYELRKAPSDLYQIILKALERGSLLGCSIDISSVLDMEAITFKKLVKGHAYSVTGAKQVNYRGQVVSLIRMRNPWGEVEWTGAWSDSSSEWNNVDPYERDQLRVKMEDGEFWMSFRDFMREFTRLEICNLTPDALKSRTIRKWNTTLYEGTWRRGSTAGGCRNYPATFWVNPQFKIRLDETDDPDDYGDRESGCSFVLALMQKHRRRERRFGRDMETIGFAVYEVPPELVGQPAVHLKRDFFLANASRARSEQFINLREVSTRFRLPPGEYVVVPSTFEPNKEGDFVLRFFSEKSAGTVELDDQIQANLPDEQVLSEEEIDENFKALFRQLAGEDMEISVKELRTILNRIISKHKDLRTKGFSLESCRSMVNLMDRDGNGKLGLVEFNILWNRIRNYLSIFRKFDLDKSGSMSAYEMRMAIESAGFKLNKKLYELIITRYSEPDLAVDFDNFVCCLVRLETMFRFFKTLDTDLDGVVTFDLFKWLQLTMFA
T1 sequence (P04632 1-268 partner): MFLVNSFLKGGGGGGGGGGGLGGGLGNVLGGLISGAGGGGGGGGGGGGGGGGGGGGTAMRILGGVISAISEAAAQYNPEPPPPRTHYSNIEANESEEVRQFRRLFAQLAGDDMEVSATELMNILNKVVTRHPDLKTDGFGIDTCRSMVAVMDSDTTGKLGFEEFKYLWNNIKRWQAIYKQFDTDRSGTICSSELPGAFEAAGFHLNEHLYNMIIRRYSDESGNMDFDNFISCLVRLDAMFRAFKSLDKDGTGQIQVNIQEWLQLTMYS
In words: Enzymatic Calpain Inhibition Assay. The conditions noted are these: enzymatic calpain I inhibition; read-out: Calp I IC50. It is filed as biochemical. As for the experimental part:
The Ki value was also determined in some cases. These criteria were used to measure the inhibitory effect of the compounds (I) on calpain I, calpain II and cathepsin B.
The inhibitory properties of calpain inhibitors are tested in 100 μl of a buffer containing 100 mM imidazole pH 7.5, 5 mM L-Cystein-HCl, 5 mM CaCl2, 250 μM of the calpain fluorogenic substrate Suc-Leu-Tyr-AMC (Sigma) (Sasaki et al., J. Biol. Chem., 1984, 259, 12489-12949) dissolved in 2.5 μl DMSO and 0.5 μg of human μ-calpain (Calbiochem). The inhibitors dissolved in 1 μl DMSO are added to the reaction buffer. The fluorescence of the cleavage product 7-amino-4-methylcoumarin (AMC) is followed in a SPECTRAmax GEMINI XS (Molecular Device) fluorimeter at λex=360 nm and λem=440 nm at 30° C. during 30 min at intervals of 30 sec in 96-well plates (Greiner). The initial reaction velocity at different inhibitor concentrations is plotted against the inhibitor concentration and the IC50 values determined graphically.

For assay [2], the system named is cellular calpains in C2C12 myoblasts. Description: Calpain Inhibition Assay in C2C12 Myoblasts. It is filed as cell-based. The conditions noted are these: read-out: Calp I IC50 Myoblast. As for the experimental part: This assay is aimed at monitoring the ability of the substance to inhibit cellular calpains. C2C12 myoblasts are grown in 96-well plates in growth medium (DMEM, 20% foetal calf serum) until they reach confluency. The growth medium is then replaced by fusion medium (DMEM, 5% horse serum). 24 hours later the fusion medium is replaced by fusion medium containing the test substances dissolved in 1 μl DMSO. After 2 hours of incubation at 37° C. the cells are loaded with the calpain fluorogenic substrate Suc-Leu-Tyr-AMC at 400 μM in 50 μl of a reaction buffer containing 135 mM NaCl; 5 mM KCl; 4 mM CaCl2; 1 mM MgCl2; 10 mM Glucose; 10 mM HEPES pH 7.25 for 20 min at room temperature. The calcium influx, necessary to activate the cellular calpains, is evoked by the addition of 50 μl reaction buffer containing 20 μM of the calcium ionophore Br-A-23187 (Molecular Probes). The fluorescence of the cleavage product AMC is measured as described above during 60 min at 37° C. at intervals of 1 min. The IC50 values are determined as described above. Comparison of the IC50 determined in the enzymatic calpain inhibition assay to the IC50 determined in the C2C12 myoblasts calpain inhibition assay, allows to evaluate the cellular uptake or the membrane permeability of the substance.

The target of assay [3] is T2, 20S Proteasome (Oryctolagus cuniculus, UniProt G1T4Q9).
T2 sequence (G1T4Q9 1-263): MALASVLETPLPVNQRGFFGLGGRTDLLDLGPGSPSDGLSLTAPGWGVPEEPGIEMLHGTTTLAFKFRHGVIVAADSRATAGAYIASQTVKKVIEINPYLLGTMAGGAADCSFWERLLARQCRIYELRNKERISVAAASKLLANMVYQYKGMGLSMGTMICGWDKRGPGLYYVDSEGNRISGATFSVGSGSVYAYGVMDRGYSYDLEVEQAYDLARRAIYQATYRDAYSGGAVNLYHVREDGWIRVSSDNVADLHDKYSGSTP
In words: 20S Proteasome Assay. It is filed as biochemical. As to conditions: Rabbit, read-out: 20S Prot IC50. How it is done:
25 μl of a reaction buffer containing 400 μM of the fluorogenic substrate Suc-Leu-Leu-Val-Tyr-AMC (Bachem) are dispensed per well of a white microtiter plate. Test compounds dissolved in 0.5 μl DMSO are added. To start the reaction; 25 μl of reaction buffer containing 35 ng of enzyme (20S Proteasome, Rabbit, Calbiochem) are added. The increase in fluorescence (excitation at 360 nm; emission at 440 nm) is measured over 30 min at 30° C. at 30″. The IC50's are then determined from the slopes.

As a reminder, the IC50 is the concentration at which inhibition is half-maximal.

With `CCNC(=O)C(=O)[C@H](Cc1ccc(Cl)cc1)NC(=O)[C@@H](NC(=O)[C@H](Cc1ccccc1)NC(=O)CCCCC1CCS[S+]1[O-])C(C)C` (stereo partly drawn) [Example 2], the IC50 in assay [1] is 38 nM; in assay [2], 210 nM; in assay [3], 160 nM.
Taken in the same sequence, the figures for `CCNC(=O)C(=O)C(Cc1ccc(OC)cc1)NC(=O)C(CC(C)C)NC(=O)C(Cc1cccc2ccccc12)NC(=O)CCCCC1CCSS1` (stereo not drawn) [Example 637] were 30 nM, 40 nM and 40 nM.

The record behind these values is patent publication US20070293486A1, “Alpha-Keto Carbonyl Calpain Inhibitors” (SANTHERA PHARMACEUTICALS (SCHWEIZ) AG, priority 2004, published 2007).
